# From ChEMBL document CHEMBL4507268 (2021)
# Tests used:
# [1] = target: Muscarinic acetylcholine receptor M4 (Homo sapiens) (UniProt P08173); conditions: Compound concentration 10.0 uM
# [2] = target: Glycogen synthase kinase-3 beta (Homo sapiens) (UniProt P49841); conditions: Compound concentration 1.0 uM
# [3] = target: T1, Ephrin type-B receptor 4 (Homo sapiens) (UniProt P54760); conditions: Compound concentration 1.0 uM
# T1 sequence (whole entry): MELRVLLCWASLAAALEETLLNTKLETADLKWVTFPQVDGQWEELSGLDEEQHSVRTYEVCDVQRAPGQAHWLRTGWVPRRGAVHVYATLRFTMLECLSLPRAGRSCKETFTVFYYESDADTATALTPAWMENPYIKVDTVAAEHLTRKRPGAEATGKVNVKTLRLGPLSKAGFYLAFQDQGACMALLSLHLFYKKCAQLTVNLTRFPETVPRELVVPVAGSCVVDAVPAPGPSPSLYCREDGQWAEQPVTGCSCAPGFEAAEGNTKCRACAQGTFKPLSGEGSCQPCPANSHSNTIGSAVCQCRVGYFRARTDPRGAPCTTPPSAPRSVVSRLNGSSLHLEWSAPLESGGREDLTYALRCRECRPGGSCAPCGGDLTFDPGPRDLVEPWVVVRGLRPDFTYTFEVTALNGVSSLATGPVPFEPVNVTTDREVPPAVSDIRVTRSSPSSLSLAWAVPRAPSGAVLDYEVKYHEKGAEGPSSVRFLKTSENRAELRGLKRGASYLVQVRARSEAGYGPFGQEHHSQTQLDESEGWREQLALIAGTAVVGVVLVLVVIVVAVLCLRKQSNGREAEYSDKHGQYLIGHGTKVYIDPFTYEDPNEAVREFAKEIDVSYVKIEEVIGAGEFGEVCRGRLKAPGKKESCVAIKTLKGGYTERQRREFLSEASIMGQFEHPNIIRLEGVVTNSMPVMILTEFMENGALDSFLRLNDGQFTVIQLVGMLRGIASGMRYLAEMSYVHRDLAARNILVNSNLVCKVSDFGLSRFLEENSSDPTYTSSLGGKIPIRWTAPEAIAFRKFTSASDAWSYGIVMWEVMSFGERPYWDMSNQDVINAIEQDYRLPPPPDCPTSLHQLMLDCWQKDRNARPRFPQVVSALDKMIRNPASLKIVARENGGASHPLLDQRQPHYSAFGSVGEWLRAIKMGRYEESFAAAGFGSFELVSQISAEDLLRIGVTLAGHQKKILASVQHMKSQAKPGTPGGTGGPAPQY
# [4] = target: Ribosomal protein S6 kinase alpha-2 (Homo sapiens) (UniProt Q15349); conditions: Compound concentration 1.0 uM
# [5] = target: T2, Serine/threonine-protein kinase TAO2 (Homo sapiens) (UniProt Q9UL54); conditions: Compound concentration 1.0 uM
# T2 sequence (whole entry): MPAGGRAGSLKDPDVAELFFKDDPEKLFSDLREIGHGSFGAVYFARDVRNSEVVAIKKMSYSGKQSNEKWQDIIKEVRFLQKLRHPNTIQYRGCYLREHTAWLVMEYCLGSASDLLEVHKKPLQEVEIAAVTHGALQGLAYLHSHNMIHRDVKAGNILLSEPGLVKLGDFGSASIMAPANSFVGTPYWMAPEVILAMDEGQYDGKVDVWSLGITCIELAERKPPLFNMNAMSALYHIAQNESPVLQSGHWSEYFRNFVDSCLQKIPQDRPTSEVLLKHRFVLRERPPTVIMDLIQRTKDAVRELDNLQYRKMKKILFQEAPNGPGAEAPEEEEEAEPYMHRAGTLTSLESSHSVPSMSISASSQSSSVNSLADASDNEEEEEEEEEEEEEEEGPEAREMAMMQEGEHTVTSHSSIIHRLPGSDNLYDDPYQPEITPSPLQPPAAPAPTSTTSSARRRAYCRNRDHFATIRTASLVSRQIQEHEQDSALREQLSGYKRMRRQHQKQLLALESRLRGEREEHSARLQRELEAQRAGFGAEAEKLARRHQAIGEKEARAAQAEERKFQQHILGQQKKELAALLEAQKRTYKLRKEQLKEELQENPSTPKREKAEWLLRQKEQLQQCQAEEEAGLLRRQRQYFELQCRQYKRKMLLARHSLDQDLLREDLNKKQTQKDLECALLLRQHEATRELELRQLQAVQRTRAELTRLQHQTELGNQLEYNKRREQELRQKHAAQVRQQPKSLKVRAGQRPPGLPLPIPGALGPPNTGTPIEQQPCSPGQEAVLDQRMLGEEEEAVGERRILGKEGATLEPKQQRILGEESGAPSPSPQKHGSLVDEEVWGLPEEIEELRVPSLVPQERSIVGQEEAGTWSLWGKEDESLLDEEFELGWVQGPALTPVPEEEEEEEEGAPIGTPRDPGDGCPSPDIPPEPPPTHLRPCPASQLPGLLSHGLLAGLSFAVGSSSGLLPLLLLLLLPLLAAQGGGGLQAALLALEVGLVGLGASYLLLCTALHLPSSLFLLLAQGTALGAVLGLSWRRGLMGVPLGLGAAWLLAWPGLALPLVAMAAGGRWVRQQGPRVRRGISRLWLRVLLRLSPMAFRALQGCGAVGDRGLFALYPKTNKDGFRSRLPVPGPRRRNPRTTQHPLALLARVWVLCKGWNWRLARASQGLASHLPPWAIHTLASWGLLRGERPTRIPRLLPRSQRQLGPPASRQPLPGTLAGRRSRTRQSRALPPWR
# Glycogen synthase kinase-3 beta (Homo sapiens), sequence (P49841 whole entry, looked up): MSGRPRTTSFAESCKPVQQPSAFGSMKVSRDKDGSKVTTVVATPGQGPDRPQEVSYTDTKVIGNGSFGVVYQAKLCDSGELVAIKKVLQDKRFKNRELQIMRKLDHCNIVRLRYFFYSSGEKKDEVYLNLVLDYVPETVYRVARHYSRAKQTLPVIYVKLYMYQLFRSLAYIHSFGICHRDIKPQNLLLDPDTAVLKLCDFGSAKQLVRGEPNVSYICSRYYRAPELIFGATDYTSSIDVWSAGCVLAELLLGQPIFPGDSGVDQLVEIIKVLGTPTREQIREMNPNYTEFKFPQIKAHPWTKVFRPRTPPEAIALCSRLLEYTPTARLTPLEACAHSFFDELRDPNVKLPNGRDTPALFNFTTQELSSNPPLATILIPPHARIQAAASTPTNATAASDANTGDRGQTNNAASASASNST
# Muscarinic acetylcholine receptor M4 (Homo sapiens), sequence (P08173 whole entry): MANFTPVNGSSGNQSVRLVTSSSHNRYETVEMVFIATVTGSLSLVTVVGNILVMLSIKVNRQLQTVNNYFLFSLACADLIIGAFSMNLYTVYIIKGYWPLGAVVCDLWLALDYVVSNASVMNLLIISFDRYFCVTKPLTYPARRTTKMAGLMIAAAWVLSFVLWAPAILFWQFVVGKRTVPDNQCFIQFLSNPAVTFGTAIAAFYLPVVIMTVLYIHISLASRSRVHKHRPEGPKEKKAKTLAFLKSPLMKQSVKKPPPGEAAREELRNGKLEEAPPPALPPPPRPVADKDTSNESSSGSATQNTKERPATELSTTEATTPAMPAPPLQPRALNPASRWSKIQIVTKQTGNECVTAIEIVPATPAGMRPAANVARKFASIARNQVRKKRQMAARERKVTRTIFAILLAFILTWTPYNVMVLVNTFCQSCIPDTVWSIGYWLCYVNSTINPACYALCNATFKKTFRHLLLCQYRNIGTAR
# Ribosomal protein S6 kinase alpha-2 (Homo sapiens), sequence (Q15349 whole entry): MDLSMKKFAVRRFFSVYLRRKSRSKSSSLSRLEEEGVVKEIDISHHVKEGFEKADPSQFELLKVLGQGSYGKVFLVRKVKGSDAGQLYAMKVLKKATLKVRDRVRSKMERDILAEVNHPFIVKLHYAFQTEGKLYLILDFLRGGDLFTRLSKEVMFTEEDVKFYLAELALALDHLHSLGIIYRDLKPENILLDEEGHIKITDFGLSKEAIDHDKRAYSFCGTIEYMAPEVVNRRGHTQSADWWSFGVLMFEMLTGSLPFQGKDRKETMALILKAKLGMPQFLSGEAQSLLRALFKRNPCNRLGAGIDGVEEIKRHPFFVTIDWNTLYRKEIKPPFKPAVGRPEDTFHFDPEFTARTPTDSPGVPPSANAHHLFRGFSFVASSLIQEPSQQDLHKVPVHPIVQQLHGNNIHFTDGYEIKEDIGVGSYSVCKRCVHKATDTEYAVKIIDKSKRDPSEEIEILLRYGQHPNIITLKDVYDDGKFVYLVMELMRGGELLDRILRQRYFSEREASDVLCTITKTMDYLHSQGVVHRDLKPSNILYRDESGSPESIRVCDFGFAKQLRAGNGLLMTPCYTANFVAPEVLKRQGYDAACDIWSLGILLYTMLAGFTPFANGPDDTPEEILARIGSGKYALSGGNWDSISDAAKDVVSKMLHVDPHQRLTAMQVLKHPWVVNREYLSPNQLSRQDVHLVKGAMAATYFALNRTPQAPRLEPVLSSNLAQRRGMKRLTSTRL
Compound,inhibition [1] [%],% residual kinase activity [2] [%],% residual kinase activity [3] [%],% residual kinase activity [4] [%],% residual kinase activity [5] [%]
Cc1nc(C2CCN(C(=O)c3ccc(OC(F)(F)F)cc3N)CC2)c2ncc(N3CCN(C)CC3)cc2n1 [BAY-693],-2.04,,,,
CN1CCN(c2cnc3c(C4CCN(C(=O)c5ccc(OC(F)(F)F)cc5N)CC4)ncnc3c2)CC1 [BAY-885],,99,103,98,113
